# From the SangsterLogP compilation
# Assay: method code SF-AS, from DOI: 10.1080/09553007914550151, PMID: 312783
# Conditions: pH 7.4
row,logD,SMILES
1,0.43,Cn1c(C(C)(C)O)cnc1[N+](=O)[O-]
2,1.89,O=[N+]([O-])c1nccn1CCOc1ccccc1
3,-0.38,O=[N+]([O-])c1cn(CCN2CCOCC2)cn1
4,-0.34,CC(=O)Cn1ccnc1[N+](=O)[O-]
5,0.89,COCc1ccc([N+](=O)[O-])o1
6,0.51,COC(=O)c1cnc([N+](=O)[O-])n1C
7,0.52,O=[N+]([O-])c1nccn1CCS(=O)(=O)c1ccccc1
8,0.51,CC(C)OCC(O)Cn1ccnc1[N+](=O)[O-] (configuration not stated)
9,-0.36,COCC(O)Cn1cc([N+](=O)[O-])nc1C (configuration not stated)
10,0.12,COCCn1ccnc1[N+](=O)[O-]
11,-0.09,COC(=O)Cn1ccnc1[N+](=O)[O-]
12,0.53,CCOCCn1ccnc1[N+](=O)[O-]
13,-1.3,CS(=O)(=O)CCn1ccnc1[N+](=O)[O-]
14,-0.35,Cn1c(CO)cnc1[N+](=O)[O-]
15,2.38,O=[N+]([O-])c1nccn1CCCOc1ccccc1
16,0.64,C=Cc1cnc([N+](=O)[O-])n1C
17,-0.1,O=[N+]([O-])c1nccn1CCN1CCOCC1
